In brackets after ≈: the same amount, converted by molar mass. Activity calls are given as the source filed them. No cut-off for these calls is given here.
Columns and labels:
in vivo [1] = conditions: Beagle, dog, po, 10 mg/kg
in vivo [2] = conditions: beagle, dog, iv, 1 mg/kg
Description: Half life in Beagle dog at 1 mg/kg, iv

in vivo [3] = conditions: CD-1, mouse, plasma, iv, 1 mg/kg
in vivo [4] = conditions: cynomolgus monkey, po, 10 mg/kg
[5] = target: Phosphatidylinositol 4,5-bisphosphate 3-kinase catalytic subunit gamma isoform (Homo sapiens, UniProt P48736)
Phosphatidylinositol 4,5-bisphosphate 3-kinase catalytic subunit gamma isoform, sequence (P48736 whole entry, canonical isoform): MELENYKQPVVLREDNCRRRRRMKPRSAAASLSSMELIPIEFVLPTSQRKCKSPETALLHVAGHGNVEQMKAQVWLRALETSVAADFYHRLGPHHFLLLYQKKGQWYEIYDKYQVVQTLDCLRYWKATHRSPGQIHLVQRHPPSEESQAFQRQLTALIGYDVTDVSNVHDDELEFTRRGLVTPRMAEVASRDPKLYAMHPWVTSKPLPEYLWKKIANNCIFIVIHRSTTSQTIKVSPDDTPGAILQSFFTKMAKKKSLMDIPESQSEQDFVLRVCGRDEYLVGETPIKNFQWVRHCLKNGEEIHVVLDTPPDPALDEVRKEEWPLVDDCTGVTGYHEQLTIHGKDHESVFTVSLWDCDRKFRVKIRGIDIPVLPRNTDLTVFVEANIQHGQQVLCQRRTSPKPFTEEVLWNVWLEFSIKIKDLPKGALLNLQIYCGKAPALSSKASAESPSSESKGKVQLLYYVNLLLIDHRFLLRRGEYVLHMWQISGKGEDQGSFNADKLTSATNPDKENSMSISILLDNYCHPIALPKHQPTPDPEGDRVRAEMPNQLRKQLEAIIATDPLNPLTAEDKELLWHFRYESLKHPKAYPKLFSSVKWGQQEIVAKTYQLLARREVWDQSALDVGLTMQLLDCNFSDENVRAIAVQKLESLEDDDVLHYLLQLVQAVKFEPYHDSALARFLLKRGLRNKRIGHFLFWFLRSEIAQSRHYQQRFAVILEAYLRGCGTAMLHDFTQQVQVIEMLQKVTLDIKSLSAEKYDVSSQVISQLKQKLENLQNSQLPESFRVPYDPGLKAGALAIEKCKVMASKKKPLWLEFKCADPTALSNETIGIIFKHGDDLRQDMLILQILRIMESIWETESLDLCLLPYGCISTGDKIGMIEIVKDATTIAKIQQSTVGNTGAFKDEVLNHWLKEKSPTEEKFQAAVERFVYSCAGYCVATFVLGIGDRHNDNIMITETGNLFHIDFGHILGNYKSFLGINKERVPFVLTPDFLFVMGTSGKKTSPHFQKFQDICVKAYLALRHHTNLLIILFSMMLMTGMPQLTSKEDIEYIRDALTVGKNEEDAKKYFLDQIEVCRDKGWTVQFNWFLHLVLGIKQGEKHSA
Description: Inhibition of PI3Kgamma (unknown origin) by ADP-Glo assay

[6] = target: Serine/threonine-protein kinase mTOR (Homo sapiens, UniProt P42345)
Description: Inhibition of mTOR (unknown origin) by LANCE Ultra assay

NCI-H23 = assay: cells; conditions: Homo sapiens
Description: Antiproliferative activity against human NCI-H23 cells assessed as inhibition of cell growth incubated for 7 days by CellTiter-Glo 2.0 assay

in vivo [7] = conditions: Sprague-Dawley, rat, po, 10 mg/kg
LoVo = assay: animal or person; conditions: Mus musculus, po, 480 h, read-out: TGI
in vivo [8] = conditions: cynomolgus monkey, po, 10 mg/kg; remark: listed apart in the source
in vitro [9] = conditions: dog, plasma
Description: Protein binding in dog plasma assessed as free fraction at 5 uM incubated for 5 hrs by equilibrium dialysis method

in vivo [10] = conditions: Sprague-Dawley, rat, iv, 1 mg/kg
in vivo [11] = conditions: CD-1, mouse, po, 10 mg/kg
in vitro [12] = conditions: rat, plasma
Description: Protein binding in rat plasma assessed as free fraction at 5 uM incubated for 5 hrs by equilibrium dialysis method

in vitro [13] = conditions: rat, hepatocytes
Description: Intrinsic clearance in rat hepatocytes

[14] = target: Phosphatidylinositol 3-kinase catalytic subunit type 3 (Homo sapiens, UniProt Q8NEB9)
Phosphatidylinositol 3-kinase catalytic subunit type 3, sequence (Q8NEB9 whole entry): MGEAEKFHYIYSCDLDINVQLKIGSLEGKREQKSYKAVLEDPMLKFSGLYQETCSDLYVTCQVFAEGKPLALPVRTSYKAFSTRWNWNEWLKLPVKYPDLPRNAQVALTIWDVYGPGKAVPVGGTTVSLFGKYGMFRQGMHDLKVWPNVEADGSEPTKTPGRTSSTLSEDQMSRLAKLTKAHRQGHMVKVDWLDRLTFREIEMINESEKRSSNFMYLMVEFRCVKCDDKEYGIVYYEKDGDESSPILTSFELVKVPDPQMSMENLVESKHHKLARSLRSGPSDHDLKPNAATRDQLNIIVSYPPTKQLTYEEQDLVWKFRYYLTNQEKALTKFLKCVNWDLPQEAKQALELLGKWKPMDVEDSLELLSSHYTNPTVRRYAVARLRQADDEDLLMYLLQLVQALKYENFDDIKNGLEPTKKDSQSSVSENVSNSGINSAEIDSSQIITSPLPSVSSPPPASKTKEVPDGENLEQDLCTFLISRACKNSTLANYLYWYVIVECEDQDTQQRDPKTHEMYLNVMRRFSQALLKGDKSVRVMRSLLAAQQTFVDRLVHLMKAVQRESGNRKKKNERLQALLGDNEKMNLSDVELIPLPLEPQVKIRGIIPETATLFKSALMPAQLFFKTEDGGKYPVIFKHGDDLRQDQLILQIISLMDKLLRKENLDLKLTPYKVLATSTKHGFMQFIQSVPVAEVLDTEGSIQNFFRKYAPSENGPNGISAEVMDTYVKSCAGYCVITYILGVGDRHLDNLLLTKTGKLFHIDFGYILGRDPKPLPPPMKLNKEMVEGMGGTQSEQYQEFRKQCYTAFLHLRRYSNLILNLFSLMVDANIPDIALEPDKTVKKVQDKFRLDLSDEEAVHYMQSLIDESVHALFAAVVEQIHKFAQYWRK
Description: Inhibition of VPS34 (unknown origin) by ADP-Glo assay

Cytochrome P450 3A4 = Cytochrome P450 3A4 (Homo sapiens, UniProt P08684)
Cytochrome P450 3A4, sequence (P08684 whole entry): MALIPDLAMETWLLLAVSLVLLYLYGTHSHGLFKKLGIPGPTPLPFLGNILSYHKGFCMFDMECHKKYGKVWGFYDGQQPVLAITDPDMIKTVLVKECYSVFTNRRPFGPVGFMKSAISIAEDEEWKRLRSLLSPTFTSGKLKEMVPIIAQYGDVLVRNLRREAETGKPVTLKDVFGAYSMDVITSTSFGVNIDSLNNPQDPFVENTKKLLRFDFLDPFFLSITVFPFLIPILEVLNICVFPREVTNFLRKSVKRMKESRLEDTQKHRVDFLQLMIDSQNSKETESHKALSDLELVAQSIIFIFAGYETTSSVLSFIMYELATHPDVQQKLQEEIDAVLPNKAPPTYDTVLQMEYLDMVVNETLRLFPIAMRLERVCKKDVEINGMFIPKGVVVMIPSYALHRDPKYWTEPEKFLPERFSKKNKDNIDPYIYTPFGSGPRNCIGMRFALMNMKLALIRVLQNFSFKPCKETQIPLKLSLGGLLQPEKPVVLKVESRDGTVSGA

in vivo [15] = conditions: CD-1, mouse, po, 30 mg/kg
in vitro [16] = conditions: cynomolgus monkey, hepatocytes
Description: Intrinsic clearance in cynomolgus monkey hepatocytes

Cytochrome P450 2C9 = Cytochrome P450 2C9 (Homo sapiens, UniProt P11712)
in vivo [17] = conditions: beagle, dog, iv, 1 mg/kg; remark: listed apart in the source
Description: Volume of distribution at steady state in Beagle dog at 1 mg/kg, iv

physchem [18] = conditions: Fasted State Simulated Intestinal Fluid
Description: Thermodynamic solubility of the compound in Fasted State Simulated Intestinal Fluid

[19] = target: Phosphatidylinositol 4,5-bisphosphate 3-kinase catalytic subunit alpha isoform (Homo sapiens, UniProt P42336)
Phosphatidylinositol 4,5-bisphosphate 3-kinase catalytic subunit alpha isoform, sequence (P42336 whole entry, canonical isoform): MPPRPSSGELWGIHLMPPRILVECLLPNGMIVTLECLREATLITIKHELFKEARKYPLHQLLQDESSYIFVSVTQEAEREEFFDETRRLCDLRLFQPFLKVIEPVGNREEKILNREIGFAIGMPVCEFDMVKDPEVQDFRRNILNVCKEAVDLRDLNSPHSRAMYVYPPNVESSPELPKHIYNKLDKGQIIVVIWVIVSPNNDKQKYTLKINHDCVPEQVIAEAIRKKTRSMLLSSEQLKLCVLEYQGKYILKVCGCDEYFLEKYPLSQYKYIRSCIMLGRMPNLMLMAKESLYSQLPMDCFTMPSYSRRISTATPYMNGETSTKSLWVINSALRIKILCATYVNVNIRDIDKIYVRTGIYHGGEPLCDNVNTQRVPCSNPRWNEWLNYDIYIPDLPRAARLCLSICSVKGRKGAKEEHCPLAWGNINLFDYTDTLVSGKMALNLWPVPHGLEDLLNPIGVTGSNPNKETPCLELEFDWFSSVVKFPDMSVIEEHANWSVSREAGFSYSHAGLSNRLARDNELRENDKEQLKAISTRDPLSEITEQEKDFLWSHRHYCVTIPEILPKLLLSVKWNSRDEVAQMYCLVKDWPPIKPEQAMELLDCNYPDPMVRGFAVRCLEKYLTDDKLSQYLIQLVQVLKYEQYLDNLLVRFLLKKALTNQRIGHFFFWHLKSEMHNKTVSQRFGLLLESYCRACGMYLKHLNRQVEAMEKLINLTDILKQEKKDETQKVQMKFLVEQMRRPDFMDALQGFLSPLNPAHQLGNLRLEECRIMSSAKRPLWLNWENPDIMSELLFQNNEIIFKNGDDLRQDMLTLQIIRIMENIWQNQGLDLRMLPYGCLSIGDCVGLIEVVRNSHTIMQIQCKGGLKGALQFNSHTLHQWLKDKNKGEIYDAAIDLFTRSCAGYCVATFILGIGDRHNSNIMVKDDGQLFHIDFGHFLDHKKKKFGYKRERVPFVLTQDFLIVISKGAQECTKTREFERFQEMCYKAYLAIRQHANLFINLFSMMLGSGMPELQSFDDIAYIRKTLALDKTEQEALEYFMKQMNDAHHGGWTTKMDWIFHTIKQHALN
Description: Inhibition of PI3Kalpha (unknown origin) by ADP-Glo assay

in vivo [20] = conditions: CD-1, mouse, po, 10 mg/kg; remark: listed apart in the source
Cytochrome P450 2C8 = target: T1, Cytochrome P450 2C8 (Homo sapiens, UniProt P10632)
T1 sequence (P10632 whole entry): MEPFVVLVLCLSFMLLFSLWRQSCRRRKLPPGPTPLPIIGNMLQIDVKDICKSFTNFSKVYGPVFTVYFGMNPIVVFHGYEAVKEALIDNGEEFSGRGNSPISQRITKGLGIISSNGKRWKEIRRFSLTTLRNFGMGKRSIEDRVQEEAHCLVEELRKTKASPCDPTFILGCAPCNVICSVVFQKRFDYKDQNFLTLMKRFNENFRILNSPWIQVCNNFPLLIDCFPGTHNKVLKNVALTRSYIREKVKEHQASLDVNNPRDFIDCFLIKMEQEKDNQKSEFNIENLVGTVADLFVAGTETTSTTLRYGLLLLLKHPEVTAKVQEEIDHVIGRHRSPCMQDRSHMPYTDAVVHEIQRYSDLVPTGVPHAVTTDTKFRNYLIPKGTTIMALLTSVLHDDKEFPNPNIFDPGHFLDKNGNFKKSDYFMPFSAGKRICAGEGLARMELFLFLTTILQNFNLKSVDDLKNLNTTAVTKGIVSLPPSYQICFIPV
Description: Inhibition of CYP2C8 in human liver microsomes by LC-MS/MS analysis

Mus musculus = species: Mus musculus; conditions: CD-1, dose 30-50 mg/kg, route po, time 4.0 hrs
physchem [21] = conditions: octanol/phosphate buffer, pH 7.4
Description: Lipophilicity, log D of the compound in octanol/phosphate buffer at pH 7.4 by shake flask method

in vitro [22] = conditions: human, hepatocytes
Description: Intrinsic clearance in human hepatocytes

in vivo [23] = conditions: Sprague-Dawley, rat, plasma, iv, 1 mg/kg
[24] = target: Voltage-gated inwardly rectifying potassium channel KCNH2 (Homo sapiens, UniProt Q12809)
Voltage-gated inwardly rectifying potassium channel KCNH2, sequence (Q12809 whole entry): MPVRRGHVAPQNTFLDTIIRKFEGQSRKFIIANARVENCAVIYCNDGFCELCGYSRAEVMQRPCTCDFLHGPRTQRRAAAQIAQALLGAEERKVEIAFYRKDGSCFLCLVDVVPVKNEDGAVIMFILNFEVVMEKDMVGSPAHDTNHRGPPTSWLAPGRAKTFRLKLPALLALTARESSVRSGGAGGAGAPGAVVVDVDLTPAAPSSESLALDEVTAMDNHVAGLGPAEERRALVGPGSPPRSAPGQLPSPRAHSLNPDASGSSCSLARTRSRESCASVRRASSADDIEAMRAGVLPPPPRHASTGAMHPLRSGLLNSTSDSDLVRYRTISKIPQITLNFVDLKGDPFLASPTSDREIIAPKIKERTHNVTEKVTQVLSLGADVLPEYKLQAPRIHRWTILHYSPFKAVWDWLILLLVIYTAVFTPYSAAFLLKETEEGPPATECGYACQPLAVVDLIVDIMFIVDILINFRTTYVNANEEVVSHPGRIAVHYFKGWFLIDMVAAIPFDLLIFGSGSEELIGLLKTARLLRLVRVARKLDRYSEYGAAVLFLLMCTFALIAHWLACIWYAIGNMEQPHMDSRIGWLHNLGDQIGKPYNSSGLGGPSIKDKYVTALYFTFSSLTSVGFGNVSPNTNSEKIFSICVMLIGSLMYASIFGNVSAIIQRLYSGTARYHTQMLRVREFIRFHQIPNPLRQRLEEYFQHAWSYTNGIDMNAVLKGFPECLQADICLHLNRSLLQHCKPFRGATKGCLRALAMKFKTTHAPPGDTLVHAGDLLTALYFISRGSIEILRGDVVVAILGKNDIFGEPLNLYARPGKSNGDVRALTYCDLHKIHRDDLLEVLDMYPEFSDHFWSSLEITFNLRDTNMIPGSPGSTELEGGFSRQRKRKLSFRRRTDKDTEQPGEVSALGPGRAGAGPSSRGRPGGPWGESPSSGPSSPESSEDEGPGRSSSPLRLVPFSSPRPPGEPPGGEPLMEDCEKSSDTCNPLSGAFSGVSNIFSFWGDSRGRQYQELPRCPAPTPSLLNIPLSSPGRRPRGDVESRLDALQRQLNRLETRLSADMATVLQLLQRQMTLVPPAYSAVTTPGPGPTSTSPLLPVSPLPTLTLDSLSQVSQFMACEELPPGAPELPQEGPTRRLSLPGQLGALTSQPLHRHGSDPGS
Description: Inhibition of hERG transfected in CHO cells by patch clamp automated cellular electrophysiology analysis

in vitro [25] = conditions: dog, hepatocytes
Description: Intrinsic clearance in dog hepatocytes

in vivo [26] = conditions: Sprague-Dawley, rat, po, 10 mg/kg; remark: listed apart in the source
in vivo [27] = conditions: cynomolgus monkey, iv, 1 mg/kg
Description: Volume of distribution at steady state in cynomolgus monkey at 1 mg/kg, iv

in vivo [28] = conditions: CD-1, mouse, po, 10 mg/kg; remark: listed apart in the source
in vivo [29] = conditions: Sprague-Dawley, rat, po, 10 mg/kg; remark: listed apart in the source
Cytochrome P450 1A2 = target: T2, Cytochrome P450 1A2 (Homo sapiens, UniProt P05177)
T2 sequence (P05177 whole entry): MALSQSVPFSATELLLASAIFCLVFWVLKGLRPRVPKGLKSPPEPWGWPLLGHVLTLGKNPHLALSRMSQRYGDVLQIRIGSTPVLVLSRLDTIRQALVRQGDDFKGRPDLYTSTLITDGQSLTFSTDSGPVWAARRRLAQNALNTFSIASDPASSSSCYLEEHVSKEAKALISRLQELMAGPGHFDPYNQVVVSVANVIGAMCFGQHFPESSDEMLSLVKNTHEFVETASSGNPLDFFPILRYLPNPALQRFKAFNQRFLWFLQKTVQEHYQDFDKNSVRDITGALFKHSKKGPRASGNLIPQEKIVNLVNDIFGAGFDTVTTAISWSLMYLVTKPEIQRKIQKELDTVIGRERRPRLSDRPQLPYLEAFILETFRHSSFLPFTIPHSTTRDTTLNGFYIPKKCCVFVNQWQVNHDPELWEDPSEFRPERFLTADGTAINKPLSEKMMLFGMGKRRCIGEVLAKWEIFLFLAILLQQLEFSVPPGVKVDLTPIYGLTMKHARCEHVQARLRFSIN

in vivo [30] = conditions: CD-1, mouse, po, 30 mg/kg; remark: listed apart in the source
in vitro [31] = conditions: human, human liver microsomes
in vivo [32] = conditions: Sprague-Dawley, rat, iv, 1 mg/kg; remark: listed apart in the source
Description: Half life in Sprague-Dawley rat at 1 mg/kg, iv

in vivo [33] = conditions: CD-1, mouse, po, 10 mg/kg; remark: listed apart in the source
in vitro [34] = conditions: mouse, plasma
Description: Protein binding in mouse plasma assessed as free fraction at 5 uM incubated for 5 hrs by equilibrium dialysis method

C[C@@H]1COCCN1c1cc(N=[S@@](C)(=O)C2CC2)nc(-c2ccnc(N)c2)n1
Tmax (in vivo [1]): 34.8 min | half-life (in vivo [2]): 186 min | clearance (in vivo [3]): 69 mL/min/kg | Tmax (in vivo [4]): 49.8 min | IC50 [5]: > 50 µM | IC50 [6]: 0.968 µM | EC50 (NCI-H23): 0.14 µM | Tmax (in vivo [7]): 11.4 min | inhibition in vivo at 30 mg/kg (LoVo): 72% | Cmax (in vivo [8]): 0.04 µM | fraction unbound at 5 h, 5 µM (in vitro [9]): 0.55 | Vd (in vivo [10]): 3.9 L/kg | bioavailability (in vivo [11]): 77% | fraction unbound at 5 h, 5 µM (in vitro [12]): 0.48 | CLint scaled (in vitro [13]): 29 mL/min/kg | IC50 [14]: > 50 µM | IC50 (Cytochrome P450 3A4): > 10 µM | Tmax (in vivo [15]): 15 min | CLint scaled (in vitro [16]): 10 mL/min/kg | IC50 (Cytochrome P450 2C9): > 10 µM | Vd (in vivo [17]): 3.6 L/kg | solubility thermodynamic (physchem [18]): 1600 µg/mL (≈ 4.12 mM) | IC50 [19]: 29 µM | AUC(0-t) (in vivo [20]): 4.25 µM·h | IC50 (Cytochrome P450 2C8): > 10 µM | inhibition (Mus musculus): Active | logD (physchem [21]): 1.62 | CLint scaled (in vitro [22]): 8 mL/min/kg | clearance (in vivo [23]): 98 mL/min/kg | IC50 [24]: > 10 µM | CLint scaled (in vitro [25]): 6 mL/min/kg | Cmax (in vivo [26]): 5.56 µM | Vd (in vivo [27]): 2 L/kg | Cmax (in vivo [28]): 3.16 µM | bioavailability (in vivo [29]): 58% | IC50 (Cytochrome P450 1A2): > 10 µM | AUC(0-t) (in vivo [30]): 25.3 µM·h | CLint scaled at 0.75 h, 1 µM (in vitro [31]): 2.3 mL/min/kg | half-life (in vivo [32]): 36 min | Tmax (in vivo [33]): 15 min | fraction unbound at 5 h, 5 µM (in vitro [34]): 0.33

Reference: ChEMBL document CHEMBL6087433, “Discovery of ART0380, a Potent and Selective ATR Kinase Inhibitor Undergoing Phase 2 Clinical Studies for the Treatment of Advanced or Metastatic Solid Cancers” (J Med Chem, 2024)
